pIC50: −log10 of the molar value.
Tests used:
PA-PB1 endonuclease [1] = experiment: Experimental PA-PB1 inhibitory activity of literature inhibitors (training and test set); format: biochemical, influenza virus; conditions: class of the experimental IC50
PA-PB1 endonuclease [2] = test system: PA-PB1 endonuclease; parameters: method as in supplement 1-7; conditions: training and test set compounds collected from literature; ref supplement 1-7; read-out: IC50 value Experimental (PA-PB1 endonuclease inhibitors); cited from earlier work

Compound | Activity scale Experimental (PA-PB1 endonuclease [1]) | pIC50 (PA-PB1 endonuclease [2])
NC(=O)c1c(NC(=O)c2cnn3c(C(F)F)cc(-c4ccccc4)nc23)sc2c1CCC2 [Compound H16] | +++ (+++, IC50 10 to 100 μM (active)) | 4.60
CCOC(=O)c1ccc(NC(=O)CSc2nc(-c3ccccc3)cc(-c3ccc(OCc4ccccc4)c(OCC)c3)c2C#N)cc1 [Compound H30] | +++ (+++, IC50 10 to 100 μM (active)) | 4.52
NC(=O)c1c(NC(=O)c2cnn3c(C(F)F)cc(-c4ccccc4)nc23)sc2c1CCC2 [Compound H32] | +++ (+++, IC50 10 to 100 μM (active)) | 4.60
CC1=CC(c2ccccc2)n2nc(NC(=O)c3ccc(F)cc3)nc2N1 (stereo not shown) [Compound H27] | ++ (++, IC50 100 to 150 μM (moderately active)) | 3.86
O=C(Nc1sc2c(c1C(=O)Nc1ccccn1)CCCCC2)c1ccc(O)cc1 [Compound H13] | +++ (+++, IC50 10 to 100 μM (active)) | 4.59
COc1ccccc1C(=O)Nc1sc2c(c1C(=O)Nc1ccccn1)CCCCC2 [Compound H11] | +++ (+++, IC50 10 to 100 μM (active)) | 4.66
Cc1cc(-c2ccccc2)n2nc(C(=O)Nc3sc4c(c3C(=O)O)CCCCC4)nc2n1 [Compound H08] | +++ (+++, IC50 10 to 100 μM (active)) | 4.72
CCCCOc1ccc(C(=O)Nc2nc3n(n2)C(c2ccccc2)C=C(C)N3)cc1 (stereo not shown) [Compound H18] | +++ (+++, IC50 10 to 100 μM (active)) | 4.43
O=C(Nc1sc2c(c1C(=O)Nc1ccc(Cl)cc1)CCCCC2)c1ccccc1O [Compound H12] | +++ (+++, IC50 10 to 100 μM (active)) | 4.74
Cc1ccc(-c2cc(-c3ccccc3)nc(SC(C)C(=O)Nc3cccc(Cl)c3)c2C#N)cc1 (stereo not shown) [Compound H36] | ++ (++, IC50 100 to 150 μM (moderately active)) | 3.90
Cc1ccc(-c2cc(-c3ccccc3)nc(SC(C)C(=O)Nc3ccc(C)c(C)c3)c2C#N)cc1 (stereo not shown) [Compound H38] | + (+, IC50 >150 μM (inactive)) | 3.74
